From ChEMBL document CHEMBL1125588, “Quinazoline antifolate thymidylate synthase inhibitors: bridge modifications and conformationally restricted analogues in the C2-methyl series” (J Med Chem, 1991)

Tests used:
L1210 [1] = experiment: Tested for the concentration to inhibit 50% of L1210 cell growth in culture.; format: functional, cell-based; conditions: Mus musculus
L1210 [2] = experiment: Tested for inhibition of L1210 cell growth in presence of dThd and expressed as % of control.; format: functional, Mus musculus; parameters: concentration or dose not given beside the values
Thymidylate synthase = Thymidylate synthase (Mus musculus, UniProt P07607); experiment: In vitro inhibition against L1210 thymidylate synthase (TS)
[3] = Ratio of IC50 of L1210:1565 cells to that of IC50 of L1210 cells; format: functional
L1210 [4] = experiment: Compound was tested for the concentration to inhibit 50% of L1210:1565 cell growth.; format: functional, cell-based; conditions: Mus musculus

Thymidylate synthase, sequence (P07607 whole entry): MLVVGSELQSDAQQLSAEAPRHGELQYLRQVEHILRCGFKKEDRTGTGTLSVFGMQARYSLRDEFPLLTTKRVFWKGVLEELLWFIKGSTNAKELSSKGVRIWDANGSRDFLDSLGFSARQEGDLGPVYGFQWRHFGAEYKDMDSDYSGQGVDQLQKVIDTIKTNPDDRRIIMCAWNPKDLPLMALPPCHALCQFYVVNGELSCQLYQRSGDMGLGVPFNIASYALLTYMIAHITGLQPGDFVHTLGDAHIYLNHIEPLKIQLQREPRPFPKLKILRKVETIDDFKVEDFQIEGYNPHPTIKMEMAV

Row | Structure (SMILES) | IC50 (L1210 [1]) | IC50 (Thymidylate synthase) | IC50 (L1210 [4]) | Control (L1210 [2]) | Ratio [3]
1 | C#CCN(Cc1ccc2nc(C)nc(O)c2c1)c1ccc2c(c1)CN([C@@H](CCC(=O)O)C(=O)O)C2=O | 170 nM | 150 nM | – | 96% | –
2 | CCN(Cc1ccc(C(=O)N[C@@H](CCC(=O)O)C(=O)O)s1)c1ccc2nc(C)nc(O)c2c1 | 660 nM | 8420 nM | – | 94% | –
3 | C=CCN(Cc1ccc(C(=O)N[C@@H](CCC(=O)O)C(=O)O)s1)c1ccc2nc(C)nc(O)c2c1 | 540 nM | 14100 nM | – | 95% | –
4 | Cc1nc(O)c2cc(N(C)Cc3ccc(C(=O)N[C@@H](CCC(=O)O)C(=O)O)cc3)ccc2n1 | 700 nM | 2620 nM | 7700 nM | 93% | 11
5 | Cc1nc(O)c2cc(NCc3ccc(C(=O)N[C@@H](CCC(=O)O)C(=O)O)cc3F)ccc2n1 | 53 nM | 6730 nM | – | 94% | –
6 | Cc1nc(O)c2cc(N(C)Cc3ccc(C(=O)N[C@@H](CCC(=O)O)C(=O)O)s3)ccc2n1 | 300 nM | 3820 nM | 2100 nM | – | 7
7 | Cc1nc(O)c2cc(Sc3ccc(C(=O)N[C@@H](CCC(=O)O)C(=O)O)cc3)ccc2n1 | > 20000 nM | 10300 nM | – | – | –
8 | Cc1nc(O)c2cc(COc3ccc(C(=O)N[C@@H](CCC(=O)O)C(=O)O)cc3)ccc2n1 | 40 nM | 21500 nM | – | 75% | –
9 | Cc1nc(=O)c2cc(CN(C)c3ccc(C(=O)N[C@@H](CCC(=O)O)C(=O)O)s3)ccc2[nH]1 [RALTITREXED] | 7 nM | – | 960 nM | – | 137
10 | Cc1nc(O)c2cc(N(CCF)Cc3ccc(C(=O)N[C@@H](CCC(=O)O)C(=O)O)s3)ccc2n1 | 380 nM | 9900 nM | – | 95% | –
11 | Cc1nc(O)c2cc(N(CCO)Cc3ccc(C(=O)N[C@@H](CCC(=O)O)C(=O)O)s3)ccc2n1 | 6200 nM | 13300 nM | – | 91% | –

The next lines start with results.

Row | IC50 (L1210 [1]) | IC50 (Thymidylate synthase) | IC50 (L1210 [4]) | Structure (SMILES) | Control (L1210 [2]) | Ratio [3]
12 | 26 nM | 6980 nM | – | Cc1nc(O)c2cc(NCc3ccc(C(=O)N[C@@H](CCC(=O)O)C(=O)O)s3)ccc2n1 | 88% | –
13 | 350 nM | 1070 nM | – | Cc1nc(O)c2cc(N(C)C(C)c3ccc(C(=O)N[C@@H](CCC(=O)O)C(=O)O)cc3)ccc2n1 (stereo not given in full) | – | –
14 | 60 nM | 16700 nM | – | Cc1nc(O)c2cc(NCc3ccc(C(=O)N[C@@H](CCC(=O)O)C(=O)O)cn3)ccc2n1 | – | –
15 | 1300 nM | 720 nM | – | Cc1nc(O)c2cc(CN(C)c3ccc4c(c3)CN([C@@H](CCC(=O)O)C(=O)O)C4=O)ccc2n1 | 90% | –
16 | 2400 nM | – | – | C#CCN(Cc1ccc(C(=O)N[C@@H](CCC(=O)O)C(=O)O)cc1)c1ccc2nc(C)nc(O)c2c1 | 89% | –
17 | 70 nM | 8280 nM | – | Cc1nc(O)c2cc(NCc3ccc(C(=O)N[C@@H](CCC(=O)O)C(=O)O)cc3)ccc2n1 | 93% | –
18 | 3000 nM | 24800 nM | – | Cc1nc2ccc(CNc3ccc(C(=O)N[C@@H](CCC(=O)O)C(=O)O)s3)cc2c(=O)[nH]1 | – | –
19 | 420 nM | 4660 nM | – | Cc1nc(O)c2cc(CSc3ccc(C(=O)N[C@@H](CCC(=O)O)C(=O)O)cc3)ccc2n1 | 99% | –
20 | 36 nM | 3270 nM | – | Cc1nc(O)c2cc(Cn3ccc4cc(C(=O)N[C@@H](CCC(=O)O)C(=O)O)ccc43)ccc2n1 | 90% | –
21 | – | – | 4200 nM | Cc1nc2ccc(CN(C)c3ccc(C(=O)N[C@@H](CCC(=O)O)C(=O)O)cc3)cc2c(=O)[nH]1 | – | 38
22 | 800 nM | 4300 nM | – | Cc1nc(O)c2cc(NC(C)c3ccc(C(=O)N[C@@H](CCC(=O)O)C(=O)O)cc3)ccc2n1 (stereo not given in full) | 93% | –
23 | 3000 nM | 8270 nM | – | Cc1nc(O)c2cc(CNc3ccc4c(c3)CN([C@@H](CCC(=O)O)C(=O)O)C4=O)ccc2n1 | – | –
